Measured values taken from PubChem BioAssay (NCI).
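GI50 = concentration required for 50% inhibition of growth. Definition used: TGI = concentration required for complete inhibition of growth.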

Columns and labels:
Assay in all cases: NCI-60 cell line screen, 384-well format
NCI/ADR-RES ovarian = test system: NCI/ADR-RES ovarian
RPMI-8226 leukemia = test system: RPMI-8226 leukemia
BT-549 breast = test system: BT-549 breast
786-0 renal = test system: 786-0 renal
HT29 colon = test system: HT29 colon
SK-MEL-5 melanoma = test system: SK-MEL-5 melanoma
A498 renal = test system: A498 renal
UACC-62 melanoma = test system: UACC-62 melanoma
NCI-H522 lung = test system: NCI-H522 lung
UO-31 renal = test system: UO-31 renal
KM12 colon = test system: KM12 colon
SK-OV-3 ovarian = test system: SK-OV-3 ovarian
NCI-H460 NSCLC = test system: NCI-H460 NSCLC
MDA-MB-435 melanoma = test system: MDA-MB-435 melanoma
SNB-75 CNS = test system: SNB-75 CNS
HCT-15 colon = test system: HCT-15 colon
NCI-H226 lung = test system: NCI-H226 lung
T-47D breast = test system: T-47D breast
CAKI-1 renal = test system: CAKI-1 renal
OVCAR-8 ovarian = test system: OVCAR-8 ovarian
TK-10 renal = test system: TK-10 renal
ACHN renal = test system: ACHN renal
HOP-62 NSCLC = test system: HOP-62 NSCLC
CCRF-CEM leukemia = test system: CCRF-CEM leukemia
EKVX NSCLC = test system: EKVX NSCLC
HS 578T breast = test system: HS 578T breast
IGROV1 ovarian = test system: IGROV1 ovarian
MDA-MB-468 breast = test system: MDA-MB-468 breast
PC-3 prostate = test system: PC-3 prostate
UACC-257 melanoma = test system: UACC-257 melanoma
NCI-H322M lung = test system: NCI-H322M lung
LOX IMVI melanoma = test system: LOX IMVI melanoma
A549 NSCLC = test system: A549 NSCLC
HCC-2998 colon = test system: HCC-2998 colon
NCI-H23 lung = test system: NCI-H23 lung
COLO 205 colon = test system: COLO 205 colon
DU-145 prostate = test system: DU-145 prostate
SK-MEL-28 melanoma = test system: SK-MEL-28 melanoma
SF-268 CNS = test system: SF-268 CNS
SF-295 CNS = test system: SF-295 CNS
HL-60(TB) leukemia = test system: HL-60(TB) leukemia
SR leukemia = test system: SR leukemia
HOP-92 NSCLC = test system: HOP-92 NSCLC
SF-539 CNS = test system: SF-539 CNS
M14 melanoma = test system: M14 melanoma
MCF7 breast = test system: MCF7 breast
MALME-3M melanoma = test system: MALME-3M melanoma
MDA-MB-231 breast = test system: MDA-MB-231 breast
OVCAR-3 ovarian = test system: OVCAR-3 ovarian
OVCAR-4 ovarian = test system: OVCAR-4 ovarian
SNB-19 CNS = test system: SNB-19 CNS
SN12C renal = test system: SN12C renal
U251 glioblastoma = test system: U251 glioblastoma
SW-620 colon = test system: SW-620 colon
HCT-116 colon = test system: HCT-116 colon
MOLT-4 leukemia = test system: MOLT-4 leukemia
K-562 leukemia = test system: K-562 leukemia

C[C@@H]1COCCN1c1cc(C2([S@@](C)(=N)=O)CC2)nc(-c2ccnc3[nH]ccc23)n1
GI50 (NCI/ADR-RES ovarian): 61.8 µM | TGI (NCI/ADR-RES ovarian): > 100 µM | GI50 (RPMI-8226 leukemia): 1.82 µM | TGI (RPMI-8226 leukemia): 4.28 µM | GI50 (BT-549 breast): 1.98 µM | TGI (BT-549 breast): 7.43 µM | GI50 ([…]-0 renal): 2.32 µM | TGI (786-0 renal): 12.1 µM | GI50 (HT29 colon): 4.65 µM | TGI (HT29 colon): 26.9 µM | GI50 (SK-MEL-5 melanoma): 7.66 µM | TGI (SK-MEL-5 melanoma): 25 µM | GI50 (A498 renal): 1.12 µM | TGI (A498 renal): 3.92 µM | GI50 (UACC-62 melanoma): 4.45 µM | TGI (UACC-62 melanoma): 64.9 µM | GI50 (NCI-H522 lung): 10.8 µM | TGI (NCI-H522 lung): > 100 µM | GI50 (UO-31 renal): 4.47 µM | TGI (UO-31 renal): > 100 µM | GI50 (KM12 colon): 1.8 µM | TGI (KM12 colon): 27.1 µM | GI50 (SK-OV-3 ovarian): 3.29 µM | TGI (SK-OV-3 ovarian): 41.8 µM | GI50 (NCI-H460 NSCLC): 1.38 µM | TGI (NCI-H460 NSCLC): 10.5 µM | GI50 (MDA-MB-435 melanoma): 7.48 µM | TGI (MDA-MB-435 melanoma): > 100 µM | GI50 (SNB-75 CNS): 3.9 µM | TGI (SNB-75 CNS): 51.8 µM | GI50 (HCT-15 colon): 4.48 µM | TGI (HCT-15 colon): > 100 µM | GI50 (NCI-H226 lung): 16.1 µM | TGI (NCI-H226 lung): 77 µM | GI50 (T-47D breast): 14.7 µM | TGI (T-47D breast): > 100 µM | GI50 (CAKI-1 renal): 3.87 µM | TGI (CAKI-1 renal): 29.6 µM | GI50 (OVCAR-8 ovarian): 7.62 µM | TGI (OVCAR-8 ovarian): 32.2 µM | GI50 (TK-10 renal): 1.83 µM | TGI (TK-10 renal): 6.26 µM | GI50 (ACHN renal): 2.03 µM | TGI (ACHN renal): 17.5 µM | GI50 (HOP-62 NSCLC): 2.15 µM | TGI (HOP-62 NSCLC): 9.45 µM | GI50 (CCRF-CEM leukemia): 0.902 µM | TGI (CCRF-CEM leukemia): 2.26 µM | GI50 (EKVX NSCLC): 9.1 µM | TGI (EKVX NSCLC): 69.1 µM | GI50 (HS 578T breast): 1.22 µM | TGI (HS 578T breast): 3.37 µM | GI50 (IGROV1 ovarian): 3.47 µM | TGI (IGROV1 ovarian): 32.9 µM | GI50 (MDA-MB-468 breast): 5.01 µM | TGI (MDA-MB-468 breast): 27.3 µM | GI50 (PC-3 prostate): 7.65 µM | TGI (PC-3 prostate): > 100 µM | GI50 (UACC-257 melanoma): 41.3 µM | TGI (UACC-257 melanoma): > 100 µM | GI50 (NCI-H322M lung): 1.78 µM | TGI (NCI-H322M lung): 7.77 µM | GI50 (LOX IMVI melanoma): 3.43 µM | TGI (LOX IMVI melanoma): 14 µM | GI50 (A549 NSCLC): 3.93 µM | TGI (A549 NSCLC): 36.5 µM | GI50 (HCC-2998 colon): 1.1 µM | TGI (HCC-2998 colon): 5.38 µM | GI50 (NCI-H23 lung): 1.97 µM | TGI (NCI-H23 lung): 5.21 µM | GI50 (COLO 205 colon): 9.01 µM | TGI (COLO 205 colon): 62.6 µM | GI50 (DU-145 prostate): 3.82 µM | TGI (DU-145 prostate): > 100 µM | GI50 (SK-MEL-28 melanoma): 23.8 µM | TGI (SK-MEL-28 melanoma): > 100 µM | GI50 (SF-268 CNS): 5.75 µM | TGI (SF-268 CNS): 95.7 µM | GI50 (SF-295 CNS): 2.68 µM | TGI (SF-295 CNS): 13.7 µM | GI50 (HL-60(TB) leukemia): 1.98 µM | TGI (HL-60(TB) leukemia): 3.68 µM | GI50 (SR leukemia): 0.0145 µM | TGI (SR leukemia): 0.244 µM | GI50 (HOP-92 NSCLC): 3.02 µM | TGI (HOP-92 NSCLC): 13.1 µM | GI50 (SF-539 CNS): 2.16 µM | TGI (SF-539 CNS): 6.4 µM | GI50 (M14 melanoma): 2.44 µM | TGI (M14 melanoma): 9.06 µM | GI50 (MCF7 breast): 1.27 µM | TGI (MCF7 breast): > 100 µM | GI50 (MALME-3M melanoma): 3.72 µM | TGI (MALME-3M melanoma): 23.6 µM | GI50 (MDA-MB-231 breast): 6.06 µM | TGI (MDA-MB-231 breast): > 100 µM | GI50 (OVCAR-3 ovarian): 4.62 µM | TGI (OVCAR-3 ovarian): > 100 µM | GI50 (OVCAR-4 ovarian): 5.37 µM | TGI (OVCAR-4 ovarian): 75.1 µM | GI50 (SNB-19 CNS): 9.29 µM | TGI (SNB-19 CNS): > 100 µM | GI50 (SN12C renal): 4.3 µM | TGI (SN12C renal): 50.1 µM | GI50 (U251 glioblastoma): 5.72 µM | TGI (U251 glioblastoma): > 100 µM | GI50 (SW-620 colon): 10.6 µM | TGI (SW-620 colon): > 100 µM | GI50 (HCT-116 colon): 3.27 µM | TGI (HCT-116 colon): 56.5 µM | GI50 (MOLT-4 leukemia): 1.35 µM | TGI (MOLT-4 leukemia): 2.68 µM | GI50 (K-562 leukemia): 3.3 µM | TGI (K-562 leukemia): 12 µM
